This note sets out measurements from patent US20240148821A1, “PHARMACEUTICAL USE OF CYCLIC PEPTIDE COMPOUND” (CHUGAI SEIYAKU KABUSHIKI KAISHA, priority 2021, published 2024).

SMILES strings stand for the structures. Numbered stars: 1 amine (or outer) side, 2 acyl side, 3 side chain; on linkers, the order of the positions; unused ones are H or OH. Bridge positions count the residues as written; N and C are the ends. Square brackets hold non-standard residues; d marks the D form. Peptide text beside a SMILES is read from it. * marks the point of attachment. hPhe(3-Cl-4-CF3) = N[C@@H](CCc1ccc(C(F)(F)F)c(Cl)c1)C(=O)O; hPhe(3-F,4-CF3) = N[C@@H](CCc1ccc(C(F)(F)F)c(F)c1)C(=O)O; NMePhe(4-CF3) = CN[C@@H](Cc1ccc(C(F)(F)F)cc1)C(=O)O; NMePhe(4-Me) = CN[C@@H](Cc1ccc(C)cc1)C(=O)O; NMedβ3hAla = C[C@H](CC(=O)[*:2])N(C)[*:1]; NMeNva(5,5-F2) = CN[C@@H](CCC(F)F)C(=O)O; NMeGly(cPent) = CN[C@H](C(=O)O)C1CCCC1; Pro(4,4-F2) = O=C(O)[C@@H]1CC(F)(F)CN1; NMe3Pal = CN[C@@H](Cc1cccnc1)C(=O)O; NMeCha = CN[C@@H](CC1CCCCC1)C(=O)O; NEtLeu = CCN[C@@H](CC(C)C)C(=O)O; NMeChg = CN[C@H](C(=O)O)C1CCCCC1; NMeI = CC[C@H](C)[C@H](NC)C(=O)O; NMeD = CN[C@@H](CC(=O)O)C(=O)O; NMeL = CN[C@@H](CC(C)C)C(=O)O; NMeV = CN[C@H](C(=O)O)C(C)C; d(β3hA) = C[C@@H](N)CC(=O)O; Morpholide = C1CN(*)CCO1; NMeA = CN[C@@H](C)C(=O)O; NMeAib = CNC(C)(C)C(=O)O; Piperidide = C1CCN(*)CC1; Pyrrolidide = C1CCN(*)C1; dNMeA = CN[C@H](C)C(=O)O; Ac5c = NC1(C(=O)O)CCCC1; Aze = O=C(O)[C@@H]1CCN1; Ac3c = NC1(C(=O)O)CC1; Sar = CNCC(=O)O

Experiment [1] has as its target protein-protein interaction between Kras and SOS1 (biotin-tagged human Kras loaded with GDP, His-tagged human SOS1) (Homo sapiens (Human), UniProt P01116, G12D). The experiment in a line: Protein-protein interaction inhibition between Kras and SOS1 (KrasG12D-SOS PPI) using AlphaScreen.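 Further: kras produced in E. coli, Ni-coupled donor beads and streptavidin acceptor beads, excitation 680 nm with emission detected at 520–620 nm via singlet oxygen transfer.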 It counts as biochemical. Conditions: AlphaScreen; biotin-tagged human Kras loaded with GDP, His-tagged human SOS1; read-out: KRAS G12D-SOS PPI IC50. A general note: Bead proximity is the source of the signal in Alpha formats.

Experiment [2] relates to Human pancreatic cancer cell line AsPC-1 (G12D mutation Kras). In words: AsPC-1 cell growth inhibition (AsPC-1 CGI). The following applies: read-out: AsPC-1 cell growth inhibition, 50% growth inhibitory concentration (IC50 value); 96 hours, CellTiter-Glo, values classified in ranges. It counts as cell-based. For orientation: In ATP-based viability assays light output follows the ATP content of the culture.
Procedure: Test compounds were serially dilated with dimethyl sulfoxide, and 200 nL was then dispensed to a U-bottom 96-well plate using Labcyte Echo. […] The cell suspension was dispensed to a. plate containing a test compound at 100 μL per well and incubated at 37° C. in a 5% carbon dioxide gas incubator. 96 hours later, 80 μL of CellTiter-Glo (Promega) was added to each well and fluorescence was measured.

Take `CC[C@H](C)[C@@H]1NC(=O)[C@H](CC(C)C)N(C)C(=O)C[C@@H](C(=O)N2CCCCC2)N(C)C(=O)[C@H](C(C)C)N(C)C(=O)C2(CC2)NC(=O)[C@@H]2CCCN2C(=O)[C@H](CCc2ccc(C(F)(F)F)c(Cl)c2)NC(=O)CN(C)C(=O)[C@H](CC2CCCCC2)N(C)C(=O)[C@@H]2CCN2C(=O)[C@H](C)N(C)C1=O` [Compound 1695] ([NMeL]I[NMeA][Aze][NMeCha][Sar][hPhe(3-Cl-4-CF3)]P[Ac3c][NMeV][NMeD]-Piperidide; lactam N-11): the figures for the IC50 in experiment [1] and in experiment [2] were 8 nM and over 500 nM, respectively.

For `CC[C@H](C)[C@@H]1NC(=O)[C@H](CC(C)C)N(C)C(=O)C[C@@H](C(=O)N2CCOCC2)N(C)C(=O)[C@H](C2CCCCC2)N(C)C(=O)C2(CCCC2)NC(=O)[C@H](Cc2cccnc2)N(C)C(=O)[C@H](CCc2ccc(C(F)(F)F)c(Cl)c2)NC(=O)CN(C)C(=O)[C@H](CC2CCCCC2)N(C)C(=O)CN(C)C(=O)CN(C)C1=O` [Compound 1745] ([NMeL]I[Sar][Sar][NMeCha][Sar][hPhe(3-Cl-4-CF3)][NMe3Pal][Ac5c][NMeChg][NMeD]-Morpholide; lactam N-11), the IC50 in experiment [1] was 1.3 nM; in experiment [2], over 500 nM.

As for `CC[C@H](C)[C@@H]1NC(=O)[C@H](C)N(C)C(=O)C[C@@H](C)N(C)C(=O)[C@H](CC(C)C)NC(=O)C(C)(C)N(C)C(=O)[C@H](CC(C)C)NC(=O)[C@H](CCc2ccc(C(F)(F)F)c(Cl)c2)NC(=O)CN(C)C(=O)[C@H](Cc2ccc(C)cc2)N(C)C(=O)CN(C)C(=O)CN(C)C1=O` [Compound 1398] (cyclo(I[Sar][Sar][NMePhe(4-Me)][Sar][hPhe(3-Cl-4-CF3)]L[NMeAib]L[NMedβ3hAla][NMeA])), the IC50 in experiment [1] is 6.6 nM; in experiment [2] it was over 500 nM.

For `CC[C@H](C)[C@@H]1NC(=O)[C@H](CC(C)C)N(C)C(=O)C[C@@H](C(=O)N2CCCCC2)N(C)C(=O)[C@H](CCC(F)F)N(C)C(=O)C2(CCCC2)NC(=O)[C@@H]2CCCN2C(=O)[C@H](CCc2ccc(C(F)(F)F)c(Cl)c2)NC(=O)CN(C)C(=O)[C@H](CC2CCCCC2)N(C)C(=O)[C@@H]2CCN2C(=O)[C@H](C)N(C)C1=O` [Compound 1660] ([NMeL]I[NMeA][Aze][NMeCha][Sar][hPhe(3-Cl-4-CF3)]P[Ac5c][NMeNva(5,5-F2)][NMeD]-Piperidide; lactam N-11), the IC50 is 16 nM in experiment [1] and over 500 nM in experiment [2].

As to `CC[C@H](C)[C@@H]1NC(=O)[C@H](CC(C)C)N(CC)C(=O)C[C@@H](C(=O)N(C)C)N(C)C(=O)[C@H]([C@@H](C)CC)N(C)C(=O)C2(CCCC2)NC(=O)[C@@H]2CCCN2C(=O)[C@H](CCc2ccc(C(F)(F)F)c(Cl)c2)NC(=O)CN(C)C(=O)[C@H](Cc2ccc(C)cc2)N(C)C(=O)[C@@H]2CCN2C(=O)[C@H](C)N(C)C1=O` [Compound 1365] ([NEtLeu]I[NMeA][Aze][NMePhe(4-Me)][Sar][hPhe(3-Cl-4-CF3)]P[Ac5c][NMeI][NMeD]-NMe2; lactam N-11), the IC50 in experiment [1] was 1.2 nM; in experiment [2] it was at most 20 nM.

As to `CC[C@H](C)[C@@H]1NC(=O)[C@H](CC(C)C)N(C)C(=O)C[C@@H](C(=O)N2CCCC2)N(C)C(=O)[C@H]([C@@H](C)CC)N(C)C(=O)C2(CCCC2)NC(=O)[C@@H]2CCCN2C(=O)[C@H](CCc2ccc(C(F)(F)F)c(Cl)c2)NC(=O)CN(C)C(=O)[C@H](C2CCCC2)N(C)C(=O)[C@@H]2CCN2C(=O)[C@H](C)N(C)C1=O` [Compound 799] ([NMeL]I[NMeA][Aze][NMeGly(cPent)][Sar][hPhe(3-Cl-4-CF3)]P[Ac5c][NMeI][NMeD]-Pyrrolidide; lactam N-11), the IC50 in experiment [1] is 1.4 nM; in experiment [2], at most 20 nM.

Regarding `CC[C@H](C)[C@@H]1NC(=O)[C@H](CC(C)C)N(C)C(=O)C[C@@H](C(=O)N2CCCCC2)N(C)C(=O)[C@H](C(C)C)N(C)C(=O)C2(CCCC2)NC(=O)[C@@H]2CCCN2C(=O)[C@H](CCc2ccc(C(F)(F)F)c(Cl)c2)NC(=O)CN(C)C(=O)[C@H](CC2CCCCC2)N(C)C(=O)[C@@H]2CCN2C(=O)[C@@H]2CCCN2C1=O` [Compound 709] ([NMeL]IP[Aze][NMeCha][Sar][hPhe(3-Cl-4-CF3)]P[Ac5c][NMeV][NMeD]-Piperidide; lactam N-11), the IC50 in experiment [1] is 41 nM; in experiment [2] it was over 500 nM.

Turning to `CC[C@H](C)[C@@H]1NC(=O)[C@H](CC(C)C)N(C)C(=O)C[C@@H](C(=O)N(C)C)N(C)C(=O)[C@H](C2CCCC2)N(C)C(=O)C2(CCCC2)NC(=O)[C@@H]2CCCN2C(=O)[C@H](CCc2ccc(C(F)(F)F)c(F)c2)NC(=O)CN(C)C(=O)[C@H](C2CCCC2)N(C)C(=O)[C@@H]2CCN2C(=O)[C@H](C)N(C)C1=O` [Compound 134] ([NMeL]I[NMeA][Aze][NMeGly(cPent)][Sar][hPhe(3-F,4-CF3)]P[Ac5c][NMeGly(cPent)][NMeD]-NMe2; lactam N-11), the IC50 in experiment [1] is 0.61 nM; in experiment [2] it was at most 20 nM.

`CC[C@H](C)[C@@H]1NC(=O)[C@H](CC(C)C)N(C)C(=O)C[C@@H](C(=O)N2CCOCC2)N(C)C(=O)[C@H]([C@@H](C)CC)N(C)C(=O)C2(CCCC2)NC(=O)[C@@H]2CC(F)(F)CN2C(=O)[C@H](CCc2ccc(C(F)(F)F)c(Cl)c2)NC(=O)CN(C)C(=O)[C@H](Cc2ccc(C(F)(F)F)cc2)N(C)C(=O)[C@@H]2CCN2C(=O)[C@H](C)N(C)C1=O` [Compound 1311] ([NMeL]I[NMeA][Aze][NMePhe(4-CF3)][Sar][hPhe(3-Cl-4-CF3)][Pro(4,4-F2)][Ac5c][NMeI][NMeD]-Morpholide; lactam N-11): the results for the IC50 in experiment [1] and in experiment [2] were 0.51 nM and at most 20 nM, respectively.

For `CC[C@H](C)[C@@H]1NC(=O)[C@H](CC(C)C)N(C)C(=O)C[C@@H](C)N(C)C(=O)[C@H](C(C)C)N(C)C(=O)C2(CCCC2)NC(=O)[C@@H]2CCCN2C(=O)[C@H](CCc2ccc(C(F)(F)F)c(Cl)c2)NC(=O)CN(C)C(=O)[C@H](Cc2ccc(C)cc2)N(C)C(=O)[C@@H]2CCN2C(=O)[C@H](C)N(C)C1=O` [Compound 1809] (cyclo([Ac5c][NMeV][NMedβ3hAla][NMeL]I[NMeA][Aze][NMePhe(4-Me)][Sar][hPhe(3-Cl-4-CF3)]P)), the IC50 is 1.4 nM in experiment [1] and at most 20 nM in experiment [2].

For the molecule `CC[C@H](C)[C@@H]1NC(=O)[C@H](CC(C)C)N(C)C(=O)C[C@@H](C)NC(=O)[C@H](C2CCCC2)N(C)C(=O)C2(CCCC2)NC(=O)[C@@H]2CCCN2C(=O)[C@H](CCc2ccc(C(F)(F)F)c(Cl)c2)NC(=O)[C@@H](C)N(C)C(=O)[C@H](Cc2ccc(C)cc2)N(C)C(=O)[C@@H]2CCN2C(=O)CN(C)C1=O` [Compound 1517] (cyclo([Ac5c][NMeGly(cPent)][d(β3hA)][NMeL]I[Sar][Aze][NMePhe(4-Me)][dNMeA][hPhe(3-Cl-4-CF3)]P)), the IC50 in experiment [1] is 49 nM; in experiment [2], over 500 nM.

As to `CC[C@H](C)[C@@H]1NC(=O)[C@H](CC(C)C)N(C)C(=O)C[C@@H](C(=O)N(C)C)N(C)C(=O)[C@H](C2CCCC2)N(C)C(=O)C2(CCCC2)NC(=O)[C@@H]2CCCN2C(=O)[C@H](CCc2ccc(C(F)(F)F)c(F)c2)NC(=O)CN(C)C(=O)[C@H](Cc2ccc(C)cc2)N(C)C(=O)[C@@H]2CCN2C(=O)[C@H](C)N(C)C1=O` [Compound 16] ([NMeL]I[NMeA][Aze][NMePhe(4-Me)][Sar][hPhe(3-F,4-CF3)]P[Ac5c][NMeGly(cPent)][NMeD]-NMe2; lactam N-11), the IC50 in experiment [1] is 0.7 nM; in experiment [2], at most 20 nM.
